# Source: ChEMBL document CHEMBL1201862, “PubChem BioAssay data set” (2004)
# Active and inactive are the calls of the source. No stated cut-off is given here; in the data, actives have a measured IC50 and inactives only a lower limit.
# Target: Envelope glycoprotein gp160 (Human immunodeficiency virus 1, UniProt Q6QLK5)
# Assay: cell-free HIV fusion peptide-binding blockers – biochemical, uHTS, fluorescence dequenching, […] (AID 1986)
# Chain of Envelope glycoprotein gp160 (Q6QLK5 whole entry, the tested form may be a part): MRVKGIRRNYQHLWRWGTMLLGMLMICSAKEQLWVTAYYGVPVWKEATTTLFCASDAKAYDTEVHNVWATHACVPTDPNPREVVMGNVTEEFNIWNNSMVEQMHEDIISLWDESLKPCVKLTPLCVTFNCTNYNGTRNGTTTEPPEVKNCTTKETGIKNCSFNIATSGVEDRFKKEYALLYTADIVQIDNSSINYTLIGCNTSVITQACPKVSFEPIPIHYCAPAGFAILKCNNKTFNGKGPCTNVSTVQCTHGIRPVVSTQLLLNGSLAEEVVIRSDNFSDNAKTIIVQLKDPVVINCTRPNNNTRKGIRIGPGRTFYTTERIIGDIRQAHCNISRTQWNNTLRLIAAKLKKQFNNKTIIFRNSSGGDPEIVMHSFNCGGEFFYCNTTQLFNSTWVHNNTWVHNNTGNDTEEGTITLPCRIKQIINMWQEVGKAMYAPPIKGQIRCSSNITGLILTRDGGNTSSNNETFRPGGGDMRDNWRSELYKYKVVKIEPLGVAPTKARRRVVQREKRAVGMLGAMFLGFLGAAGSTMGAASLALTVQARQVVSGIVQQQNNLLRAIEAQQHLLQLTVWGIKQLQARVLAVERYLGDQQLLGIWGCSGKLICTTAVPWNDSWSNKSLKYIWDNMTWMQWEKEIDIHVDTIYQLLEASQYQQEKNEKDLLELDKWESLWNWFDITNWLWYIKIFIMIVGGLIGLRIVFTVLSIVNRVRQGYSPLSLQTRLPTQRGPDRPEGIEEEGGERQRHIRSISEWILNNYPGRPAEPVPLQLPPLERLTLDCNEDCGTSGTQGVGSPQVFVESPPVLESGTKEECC
row,Compound,IC50
1,Cc1ccc(S(=O)(=O)Oc2ccc(/C=C3/C(=N)N4C(=NC3=O)SN=C4S(C)(=O)=O)cc2)cc1,16.9 µM (active)
2,O=C(O)c1ccccc1NC(=O)c1ccccc1Nc1ccccc1,17.5 µM (active)
3,O=C(O)CCCCCN1C(=O)/C(=C\c2cn(-c3ccccc3)nc2-c2cccs2)SC1=S,9.84 µM (active)
4,CCOC(=O)C1=C(C)N=c2s/c(=C\c3ccc(OCC(=O)O)cc3)c(=O)n2C1c1ccc(OC(C)C)cc1 (centres undefined),16.3 µM (active)
